Measurements taken from PMC10151334, “Anti-proliferative potential and oxidative reactivity of thermo-oxidative degradation products of stigmasterol and stigmasteryl esters for human intestinal cells” (Scientific Reports, 2023).
Where two headings read alike, the source gives them in different places.

Key:
S. typhimurium TA102 = assay: Bacterial reverse mutation assay (Ames test), strain TA102; details: for effect on TA102 revertants: 40 μg/mL, regardless of metabolic activation (+/− S9)
Description: (§1) Potential mutagenicity or pro-mutagenicity of non-heated and heated ST, ST-LA, and ST-OA was determined using the bacterial reverse mutation assay (Ames test) with Salmonella enterica subsp. enterica ser. typhimurium tester strains TA98, TA100, and TA102, which were obtained from the Polish Collection of Microorganisms of the Institute of Immunology and Experimental Therapy of the Polish Academy of Sciences in Wroclaw.
(§2) Mutagenicity experiments were performed in the liquid pre-incubation assay, without and with metabolic activation by supplying Aroclor 1254-induced rat liver microsomal fraction (S9, Sigma-Aldrich) with NADP and cofactors for NADPH-supported oxidation, according to the procedure described by Mortelmans and Zeiger[39]. Briefly, reaction mixtures, consisting of 12-h bacterial culture, non-heated and heated compound (ST, ST-LA, ST-OA) at a concentration of 40 μg, 0.2 M phosphate buffer (pH 7.4), and alternatively S9 activating mixture, were pre-incubated at 37 °C for 20 min. […] The mutagen, 2-aminoanthracene (5 μg) (Sigma-Aldrich), was a positive control in pro-mutagenicity experiments. After pre-incubation, the reaction mixtures were added to the top agar supplemented with traces of histidine and biotin and poured onto the plates covered with minimum glucose agar. The cultures were incubated for 48 h at 37 °C, and the number of revertants (His+) colonies was counted manually.
(§3) Compounds with MI ≥ 2 can be recognized as potentially mutagenic.

S. typhimurium TA100 = details: for Mutagenic index TA100: reference mutagen; for reversion of mutations in TA100: 40 μg/mL, presence and absence of the microsomal fraction
Description: as §1, §2, §3

S. typhimurium TA98 = assay: Bacterial reverse mutation assay (Ames test), strain TA98; details: for reversion of mutations in TA98: 40 μg/mL, presence and absence of the microsomal fraction
Description: as §1, §2, §3

CCD 841 CoN cells [1] = assay: DNA damage detection, comet assay (SCGE); format: cell-based, human; details: reference oxidant, 100 μM, 30 min
Description: The cells were grown at 6-well plates at the established density and standard culture conditions and exposed to the non-heated and heated ST, ST-OA, and ST-LA for 48 h. The non-treated cells and cells treated with H2O2 (100 μM, 30 min) to induce oxidative DNA damage constituted the negative and positive controls, respectively. After treatment, cells were analyzed for DNA damage using a single cell gel electrophoresis (SCGE) called comet assay, described in detail previously. Briefly, harvested cells suspended in low melting point agarose were put onto microscope slides pre-coated with normal melting point agarose and subjected sequentially to lysis, alkaline electrophoresis (pH > 13), and neutralization ([…]). The cells were stained with SYBRGold (Molecular Probes), viewed under a fluorescence microscope (Axiovert 200, Zeiss, Carl Zeiss, Gottingen, Germany), and analyzed using CometScore™ software (TriTek Corp., Sumerduck, VA, USA). At least 100 cells were analyzed on a microscope slide; 300 cells were considered for DNA damage detection in one sample. Data were expressed as the mean percentage of DNA content in the comet tail. […] Based on the comets' categorization, the total comet score (TCS) was calculated according to the formula: TCS = 0(n) + 1(n) + 2(n) + 3(n) + 4(n), where “n” is the number of cells in each comet class (0–4)[45].

CCD 841 CoN cells [2] = assay: MultiTox-Fluor Multiplex Cytotoxicity Assay (live and dead cell fluorescence); format: cell-based; details: doses up to 40 μg/mL, 48 h
Description: The normal human diploid CCD 841 CoN cell line (ATCC® CRL-1790™) isolated from colon mucosa was obtained from American Type Culture Collection (ATCC, Manassas, VA, USA). Cells were cultured in Dulbecco’s Modified Eagle’s Medium (DMEM, Sigma-Aldrich) supplemented with fetal bovine serum (FBS; Gibco BRL, Grand Island, NY, USA) to a final concentration of 10% and maintained at 37 °C in a humidified atmosphere with 5% CO2.
In the cytotoxicity experiments, CCD 841 CoN cells were seeded in 96-well plates at an initial density of 2.0 × 10^4 cells/cm^2 and incubated for 24 h. […] Control culture contained the vehicle at the amount corresponding to the sample analyzed.
The Multitox-Fluor Multiplex Cytotoxicity Assay (Promega GmbH, Mannheim, Germany) was applied to determine the relative number of live and dead cells in the CCD 841 CoN cell cultures treated with the analyzed compounds. The assay determined live- and dead-cell protease activities using two fluorogenic peptide substrates, cell-permeant (glycyl-phenylalanyl-amino fluorocoumarin; GF-AFC) and cell-impermeant (bis-alanyl-alanyl-phenylalanyl-rhodamine 110; bis-AAF-R110). After treatment, the cells were incubated with GF-AFC and bis-AAF-R110 substrates for 60 min at 37 °C. The live- and dead-cell proteases produced AFC and R110 products, measured using a Tecan M200 Infinite microplate reader (Tecan Group Ltd., Männedorf, Switzerland) at different excitation (400 nm and 485 nm) and emission (505 nm and 520 nm) spectra. The assay was conducted according to the manufacturer’s instructions.

CCD 841 CoN cells [3] = assay: DNA synthesis, BrdU incorporation (Cell Proliferation ELISA); format: cell-based, human; details: 10-40 μg/mL, 48 h
Description: CCD 841 CoN cells were grown in black 96-well plates at an initial cell density of 2 × 10^4 cells/cm^2 for 24 h under standard culture conditions. The cells were treated with ST (2.5, 5, 10, 20, and 40 μg/mL) and its esters ST-OA and ST-LA (10, 20, and 40 μg/mL) for 48 h. DNA synthesis was measured by incorporating thymidine analog 5-bromo-2′-deoxyuridine (BrdU) into newly synthesized DNA using the Cell Proliferation ELISA kit according to the protocol recommended by the manufacturer (Roche Diagnostics GmbH, Mannheim, Germany). Briefly, BrdU was added to the treated cells 24 h before the end of the exposure to the ST, ST-OA, and ST-LA (final BrdU concentration of 10 μM). After treatment, BrdU-labeled DNA was denatured (30 min, 20 °C). Then, BrdU was bonded with a peroxidase-conjugated anti-BrdU antibody (90 min, 20 °C) and reacted with the peroxidase substrate. The absorbance measurement was done with a stop solution (1 M H2SO4) at 450 nm with reference wavelength 690 nm using a Tecan M200 Infinite microplate reader.

CCD 841 CoN cells [4] = assay: Cell cycle analysis by flow cytometry (propidium iodide); format: cell-based, human; details: 40 μg/mL, 24 h
Description: CCD 841 CoN cells were grown in 6-well plates at an initial cell density of 2 × 10^4 cells/cm^2 for 24 h under standard culture conditions. The cells were treated for 24 h with the analyzed compounds at a concentration of 40 μg/mL; the high dose was applied because of the relatively low cytotoxic potential of ST-OA and ST-LA as determined in cytotoxicity studies. In addition, the cells were exposed to 0.05 μM camptothecin (Sigma-Aldrich) as a positive reference compound known to modulate cell cycle progression.
After treatment, the cells were harvested by trypsinization, washed in PBS, and fixed in 70% ethanol. Then, the cells were stained with 50 μg/mL propidium iodide in the presence of 100 μg/mL RNase (Sigma-Aldrich). The sample preparation method and staining protocol were described previously. The cycle phase distribution was analyzed with an Amnis™ FlowSight™ flow cytometer (Luminex Corporation, TX, USA).

[5] = tested on: caspase 3/7 activity in CCD 841 CoN cells; assay: Caspase 3/7 activity assay (APO-One Homogeneous); format: cell-based, human; details: 40 μg/mL, 24 h
Description: CCD 841 CoN cells were grown in black 96-well plates at an initial cell density of 2 × 10^4 cells/cm^2 for 24 h under standard culture conditions. The cell cultures were treated for 24 h with ST, ST-OA, and ST-LA at a 40 μg/mL dose. After treatment, caspase-3/7 activity was determined using the APO-One Homogeneous Caspase-3/7 Assay (Promega Corporation, Wisconsin, USA), which is based on the proteolytic cleavage of C-terminal side of aspartate residue in the DEVD peptide substrate by caspase 3/7 into fluorescent rhodamine 110 (R110). Analysis of caspase 3/7 activity was carried out following the manufacturer's instructions. Briefly, the cells after the treatment were incubated at room temperature with Apo-ONE® Caspase-3/7 Reagent—bifunctional cell lysis/caspase activity buffer combined with the pro-fluorescent caspase-3/7 substrate Z-DEVD-R110. After 4-h incubation, fluorescence was measured at an excitation wavelength of 485 nm and an emission wavelength of 530 nm using a Tecan M200 Infinite microplate reader. Data obtained were normalized to cellular protein content, quantified by BCA assay (Pierce® BCA Protein Assay Kit, Thermo Scientific Inc., USA) according to the manufacturer's protocol.

[6] = Thermo-oxidative treatment at 180 °C for 8 h, degradation of the compound; format: physicochemical; details: heated at 180 °C for 8 h under oxygen atmosphere
Description: ST, ST-OA, and ST-LA (50 mg each) were placed separately in glass vials and heated at 180 °C for 8 h under an oxygen atmosphere. After thermo-oxidative treatment, the tested compounds were stored at − 20 °C until chemical and biological analyses. The non-heated and heated ST and its esters were analyzed to detect degradation products and oxyderivatives. Analytical methods were described in the article published previously.

FHs 74 Int cells = tested on: FHs 74 Int cells; set-up: method as in PMID 31883991; details: normal human small intestine cells; cited from earlier work
THLE-2 cells = tested on: THLE-2 cells; set-up: method as in PMID 31883991; details: normal human liver cells; cited from earlier work
[7] = with metabolic activation (+ S9), reference mutagen

With `Nc1ccc2cc3ccccc3cc2c1` [2-Aminoanthracene, 2-aminoanthracene, reference compound] the “Mutagenic index TA102” value (S. typhimurium TA102; [7]) was 2.95, the “Mutagenic index TA100” value (S. typhimurium TA100; with metabolic activation (+ S9)) was 2.03 and the “Mutagenic index TA98” value (S. typhimurium TA98; [7]) was 6.00.
In the case of `OO` [H2O2, reference compound], the “total comet score (TCS)” value (CCD 841 CoN cells [1]) is reported as 263.1 ± 29.4.
With `CCCCC/C=C\C/C=C\CCCCCCCC(=O)OC1CCC2(C)C(=CCC3C2CCC2(C)C(C(C)/C=C/C(CC)C(C)C)CCC32)C1` (stereo not shown) [ST-LA, stigmasteryl linoleate] the “effect on colon cell viability / cytotoxicity” value (CCD 841 CoN cells [2]) was “did not affect colon cell viability”, the “DNA synthesis inhibition” value (CCD 841 CoN cells [3]) was “not observed” and the “subpopulation of dead cells with lower/reduced DNA content” value (CCD 841 CoN cells [4]) was “Slight expanding the cell subpopulation with reduced DNA content”. For the same compound, the “caspase 3/7 activity” value [5] was “slightly increased caspase-3/7 activities”, the “effect on TA102 revertants” value (S. typhimurium TA102) was “did not affect the number of TA102 revertants” and the “reversion of mutations in TA100” value (S. typhimurium TA100) was “did not induce the reversion of mutations”. The “reversion of mutations in TA98” value (S. typhimurium TA98) was “did not induce the reversion of mutations”, the “Fatty acid residue depletion (%)” value [6] was 31.11 ± 3.2% and the “Sterol moiety depletion (%)” value [6] was 71.6 ± 6.6%. The “cytotoxic effects” value (FHs 74 Int cells) was “no cytotoxic effects” and the “cytotoxic effects” value (THLE-2 cells) was “no cytotoxic effects”.
With `CCCCCCCC/C=C\CCCCCCCC(=O)OC1CCC2(C)C(=CCC3C2CCC2(C)C(C(C)/C=C/C(CC)C(C)C)CCC32)C1` (stereo not shown) [ST-OA, stigmasteryl oleate] the “effect on colon cell viability / cytotoxicity” value (CCD 841 CoN cells [2]) was “did not affect colon cell viability”, the “DNA synthesis inhibition” value (CCD 841 CoN cells [3]) was “not observed” and the “subpopulation of dead cells with lower/reduced DNA content” value (CCD 841 CoN cells [4]) was “Slight expanding the cell subpopulation with reduced DNA content”. The “caspase 3/7 activity” value [5] was “slightly increased caspase-3/7 activities”, the “effect on TA102 revertants” value (S. typhimurium TA102) was “did not affect the number of TA102 revertants” and the “reversion of mutations in TA100” value (S. typhimurium TA100) was “did not induce the reversion of mutations”. The “reversion of mutations in TA98” value (S. typhimurium TA98) was “did not induce the reversion of mutations”, the “Fatty acid residue depletion (%)” value [6] was 77.14 ± 5.3% and the “Sterol moiety depletion (%)” value [6] was 88.8 ± 3.5%. For the same compound, the “cytotoxic effects” value (FHs 74 Int cells) was “no cytotoxic effects” and the “cytotoxic effects” value (THLE-2 cells) was “no cytotoxic effects”.
In the case of `[N-]=[N+]=[N-].[Na+]` [Sodium azide, sodium azide, reference compound], the “Mutagenic index TA100” value (S. typhimurium TA100; without metabolic activation (− S9), dose printed with the label) is reported as 13.55 and the “Mutagenic index TA100” value (S. typhimurium TA100; without metabolic activation (− S9), dose printed with the label, listed as sodium azide) is reported as 13.6.
